Our source for the IC50 and selectivity ratio values is ChEMBL document CHEMBL4130364, “4-Aminoquinoline-chalcone/-N-acetylpyrazoline conjugates: Synthesis and antiplasmodial evaluation” (Eur J Med Chem, 2017).

One data set concerns Plasmodium falciparum. In words: Antiplasmodial activity against chloroquine-resistant Plasmodium falciparum W2 after 48 hrs by YOYO-1 dye-based flow cytometry. The note with it: W2, 48 h. It counts as functional, organism-based.
A further data set concerns HeLa. The data set is described as follows: Cytotoxicity against human HeLa cells assessed as reduction in cell viability after 24 hrs by trypan blue-based hemacytometer counting analysis.
A short description of data set [1]: Selectivity index, ratio of IC50 for human HeLa cells to IC50 for chloroquine-resistant Plasmodium falciparum W2. It counts as toxicity. Particulars: read-out: Ratio IC50.

Bounds are passed on as bounds.

In the case of `COc1ccc(/C=C/C(=O)c2ccc(OCc3cn(CCCNc4ccnc5cc(Cl)ccc45)nn3)cc2)cc1`, in the data set on Plasmodium falciparum, the IC50 was > 10 µM.
In the data set on Plasmodium falciparum, `COc1ccc(C2CC(c3ccc(OCc4cn(CCCNc5ccnc6cc(Cl)ccc56)nn4)cc3)=NN2C(C)=O)cc1OC` (stereo unspecified) yielded an IC50 of 0.504 µM.
As to `COc1cc(C(=O)/C=C/c2ccccc2)ccc1OCc1cn(CCNc2ccnc3cc(Cl)ccc23)nn1`, half-maximal inhibition in the data set on Plasmodium falciparum (IC50) required 0.355 µM.
Consider `COc1cccc2c1C(=O)c1c(O)c3c(c(O)c1C2=O)C[C@@](O)(C(=O)CO)C[C@@H]3O[C@H]1C[C@H](N)[C@H](O)[C@H](C)O1` [DOXORUBICIN], for which the IC50 with HeLa amounted to 8.3 µM.
On to `COc1cc(/C=C/C(=O)c2ccc(OCc3cn(CCNc4ccnc5cc(Cl)ccc45)nn3)cc2)cc(OC)c1OC`, for which, in the data set on Plasmodium falciparum, the half-maximal inhibitory concentration (IC50) is 0.175 µM.
Turning to `COc1cc(C2CC(c3ccc(OCc4cn(CCNc5ccnc6cc(Cl)ccc56)nn4)cc3)=NN2C(C)=O)cc(OC)c1OC` (stereo unspecified), the IC50 in the data set on Plasmodium falciparum turned out to be 0.426 µM.
In turn, `COc1ccc(C2CC(c3ccc(OCc4cn(CCCNc5ccnc6cc(Cl)ccc56)nn4)c(OC)c3)=NN2C(C)=O)cc1` (stereo unspecified) returned an IC50 in the data set with Plasmodium falciparum of 1.57 µM.
In the case of `COc1ccc(/C=C/C(=O)c2ccc(OCc3cn(CCNc4ccnc5cc(Cl)ccc45)nn3)cc2)cc1OC`, the IC50 was 12.7 µM in the data set with HeLa and 0.141 µM in the data set on Plasmodium falciparum. In data set [1], the selectivity ratio amounted to 90.
As to `CC(=O)N1N=C(c2ccc(OCc3cn(CCNc4ccnc5cc(Cl)ccc45)nn3)cc2)CC1c1ccccc1` (stereo unspecified), in the data set on Plasmodium falciparum, half-maximal inhibition (IC50) required 0.237 µM.
On the same count and under the same terms, under `COc1ccc(C2CC(c3ccc(OCc4cn(CCNc5ccnc6cc(Cl)ccc56)nn4)cc3)=NN2C(C)=O)cc1OC` (stereo unspecified) stands 0.152 µM; under `COc1cc(C2=NN(C(C)=O)C(c3cc(OC)c(OC)c(OC)c3)C2)ccc1OCc1cn(CCCNc2ccnc3cc(Cl)ccc23)nn1` (stereo unspecified), 1.74 µM.
As for `COc1cc(C2=NN(C(C)=O)C(c3ccccc3)C2)ccc1OCc1cn(CCNc2ccnc3cc(Cl)ccc23)nn1` (stereo unspecified), the IC50 in the data set on Plasmodium falciparum worked out at 0.286 µM.
Turning to `COc1ccc(C2CC(c3ccc(OCc4cn(CCNc5ccnc6cc(Cl)ccc56)nn4)cc3)=NN2C(C)=O)cc1` (stereo unspecified), the IC50 in the data set on HeLa worked out at 29.2 µM; with Plasmodium falciparum, 0.131 µM. In addition, the selectivity ratio in data set [1] was 223.
In the case of `O=C(/C=C/c1ccccc1)c1ccc(OCc2cn(CCCNc3ccnc4cc(Cl)ccc34)nn2)cc1`, the IC50 in the data set on Plasmodium falciparum was > 10 µM.
Take `COc1ccc(C2CC(c3ccc(OCc4cn(CCNc5ccnc6cc(Cl)ccc56)nn4)c(OC)c3)=NN2C(C)=O)cc1OC` (stereo unspecified): the IC50 in the data set with HeLa came out at 42.7 µM; in the data set with Plasmodium falciparum, 0.0537 µM. Moreover, the selectivity ratio in data set [1] is 795.
With `COc1ccc(/C=C/C(=O)c2ccc(OCc3cn(CCNc4ccnc5cc(Cl)ccc45)nn3)c(OC)c2)cc1`, in the data set with Plasmodium falciparum, 1.91 µM corresponded to half-maximal inhibition (IC50).
For `COc1ccc(C2CC(c3ccc(OCc4cn(CCCNc5ccnc6cc(Cl)ccc56)nn4)c(OC)c3)=NN2C(C)=O)cc1OC` (stereo unspecified), in the data set on Plasmodium falciparum, the IC50 came out at 1.68 µM.
As to `COc1ccc(C2CC(c3ccc(OCc4cn(CCNc5ccnc6cc(Cl)ccc56)nn4)c(OC)c3)=NN2C(C)=O)cc1` (stereo unspecified), the IC50 with HeLa amounted to 32.8 µM; with Plasmodium falciparum, 0.0587 µM. In data set [1], the selectivity ratio came to 558.
The molecule `COc1cc(/C=C/C(=O)c2ccc(OCc3cn(CCCNc4ccnc5cc(Cl)ccc45)nn3)cc2)cc(OC)c1OC` had an IC50 in the data set on Plasmodium falciparum of 5.28 µM.
Still for that read-out and setting: next, `CC(=O)N1N=C(c2ccc(OCc3cn(CCCNc4ccnc5cc(Cl)ccc45)nn3)cc2)CC1c1ccccc1` (stereo unspecified): 3 µM.
For the molecule `COc1cc(C2=NN(C(C)=O)C(c3ccccc3)C2)ccc1OCc1cn(CCCNc2ccnc3cc(Cl)ccc23)nn1` (stereo unspecified), the results for the IC50 with HeLa and in the data set with Plasmodium falciparum were 46.1 µM and 0.077 µM, respectively. Moreover, the selectivity ratio in data set [1] was 598.
In the case of `COc1ccc(/C=C/C(=O)c2ccc(OCc3cn(CCNc4ccnc5cc(Cl)ccc45)nn3)c(OC)c2)cc1OC`, in the data set on Plasmodium falciparum, the IC50 was 0.83 µM.
Molecule `COc1ccc(C2CC(c3ccc(OCc4cn(CCCNc5ccnc6cc(Cl)ccc56)nn4)cc3)=NN2C(C)=O)cc1` (stereo unspecified) displayed an IC50 with Plasmodium falciparum of 0.498 µM.
For the molecule `COc1ccc(/C=C/C(=O)c2ccc(OCc3cn(CCCNc4ccnc5cc(Cl)ccc45)nn3)cc2)cc1OC`, the IC50 in the data set with Plasmodium falciparum is > 10 µM.
For the molecule `COc1cc(C(=O)/C=C/c2ccccc2)ccc1OCc1cn(CCCNc2ccnc3cc(Cl)ccc23)nn1`, the IC50 in the data set with Plasmodium falciparum stood at 6.96 µM.
Regarding `COc1cc(C(=O)/C=C/c2cc(OC)c(OC)c(OC)c2)ccc1OCc1cn(CCCNc2ccnc3cc(Cl)ccc23)nn1`, in the data set on Plasmodium falciparum, half-maximal inhibition (IC50) was put at 0.831 µM.
On the same count and under the same terms, next, `COc1cc(C(=O)/C=C/c2cc(OC)c(OC)c(OC)c2)ccc1OCc1cn(CCNc2ccnc3cc(Cl)ccc23)nn1`: 0.355 µM.
As to `COc1ccc(/C=C/C(=O)c2ccc(OCc3cn(CCCNc4ccnc5cc(Cl)ccc45)nn3)c(OC)c2)cc1`, the IC50 in the data set with Plasmodium falciparum was > 10 µM.
The same measure, in the same setting: next, `COc1cc(C2=NN(C(C)=O)C(c3cc(OC)c(OC)c(OC)c3)C2)ccc1OCc1cn(CCNc2ccnc3cc(Cl)ccc23)nn1` (stereo unspecified): 0.139 µM.
In the case of `COc1cc(C2CC(c3ccc(OCc4cn(CCCNc5ccnc6cc(Cl)ccc56)nn4)cc3)=NN2C(C)=O)cc(OC)c1OC` (stereo unspecified), the IC50 with Plasmodium falciparum is 2.42 µM.
In the case of `O=C(/C=C/c1ccccc1)c1ccc(OCc2cn(CCNc3ccnc4cc(Cl)ccc34)nn2)cc1`, the midpoint of inhibition with Plasmodium falciparum, the IC50, lay at 0.172 µM.
Regarding `COc1ccc(/C=C/C(=O)c2ccc(OCc3cn(CCCNc4ccnc5cc(Cl)ccc45)nn3)c(OC)c2)cc1OC`, it took 0.337 µM to reach half-maximal inhibition in the data set with Plasmodium falciparum (IC50).
On to `C[C@@H]1CC[C@H]2[C@@H](C)C(=O)O[C@@H]3O[C@@]4(C)CC[C@@H]1[C@]32OO4` [ARTEMISININ], for which, in the data set on Plasmodium falciparum, the IC50 worked out at 0.0321 µM.
Regarding `COc1ccc(/C=C/C(=O)c2ccc(OCc3cn(CCNc4ccnc5cc(Cl)ccc45)nn3)cc2)cc1`, the 50% inhibitory concentration (IC50) in the data set with HeLa came to 35.6 µM; with Plasmodium falciparum it was 0.114 µM. Also, in data set [1], the selectivity ratio came to 311.
